The source of these data is US5965743A, “N-substituted imidazol derivative” (Nippon Soda Co., Ltd., priority 1994, dated 1999).

Like-named read-outs stand apart in the source and are kept apart here.

In assay [1] the test system is biosynthesis of cholesterol. Kind of assay: Inhibitory effect on biosynthesis of cholesterol in cell-free biosystem. It is filed as biochemical, rat (SD-strain). Conditions: cell-free rat liver enzyme system, 90 min, 37° C., pH 7.4; read-out: 50% Inhibitory Concentration (IC50), cholesterol biosynthesis. The procedure: Inhibitory Effect on Biosynthesis of Cholesterol in Cell-free Biosystem
(1) Preparation of Enzyme Reaction System
(§1) The preparation of the enzymatic system for the biosynthesis of cholesterol in rats was carried out according to the method described in Biochimica et Biophysica Acta, Vol.486, pp 70-81, 1977.
(§2) More particularly, SD-strain female rats weighing from […] were fed for 7 to 10 days with a diet containing 2% cholestyramine to enhance their biosynthetic activity of cholesterol. After killed the rats by means of depletion of blood in midnight, the livers thereof were removed and homogenized with a double volume of 0.1 M potassium phosphate buffer solution (pH 7.4) containing 15 mM nicotine amide and 2 mM magnesium chloride by using a loose fitting-type teflon homogenizer. The supernatant obtained by centrifuging the homogenate at 12,000×g for 30 min. was further centrifuged at 105,000×g for 90 min., thereby separating it to the microsome fraction and the supernatant fraction. The supernatant obtained were kept as the fraction resulting in the precipitation in 40-80% ammonium sulfate (hereinafter referred to as "soluble fraction"). Each of the soluble fraction and the microsome fraction were independently adjusted with 0.1 M potassium phosphate buffer solution (pH 7.4) to the volumes of 1 ml/g of liver and 1 ml/3 g of liver, respectively, and were kept and used in the subsequent tests as an enzyme solution for the mixing ratio of 16:1.
(2) Method for Measuring Cholesterol Biosynthesis Activity
(§3) Cholesterol biosynthesis activity was measured according to the method described in Biochimica Biophysica Acta, Vol.486, pp 70-81, 1977. 2 μl dimethylsulfoxide solution of the test compound were added to a solution composed of 50 μl of the enzyme solution prepared in (1) described above, 0.1 M potassium phosphate buffer solution (pH 7.4), 1 mM ATP, 5 mM glucose-1-phosphate, 6 mM glutathione, 6 mM magnesium chloride, 0.04 mM coenzyme A, 0.25 mM NAD, 0.25 mM NADP and 1 mM 2-^14 C-sodium acetate (111 MBq./mmol), and the resultant solution was adjusted to the whole volume of 0.2 ml and then allowed to a reaction for 90 min. at 37° C. while shaking. The reaction was then stopped by adding 1 ml of 15% ethanol solution of potassium hydroxide, and the solution was then heated for 1 hour at 75° C. After extracted unsaponificated products with hexane from the solution, the solution was then condensed and dried to the hard state and subsequently dissolved in small volume of a mixture of chloroform and methanol (mixing ratio; 1:2). The resultant chloroform-methanol solution was spotted on a pre-coated silica gel TLC plate, then developed with a developer composed of benzene and ethyl acetate (mixing ratio; 9:1). The cholesterol spot was then taken out from the plate, and the radient activity of the spot was measured by using a liquid scintillation counter. Based on the radio-activity measured, mthe 50% inhibitory concentration (IC50) of the compounds of the present invention were determined.

For assay [2], the system named is Triton WR-1339-Induced Hyperlipemia Mice. Kind of assay: Effect on serum lipid in Triton WR-1339-induced hyperlipemia mice. Conditions: Mus musculus, po (3 x 33.3 mg/kg), average of 10 animals, 24 hours. It is filed as in vivo, mouse (Crj:ICR-strain). Here is the method: For this test, Crj:ICR-strain male mice aged 7-9 weeks were provided. […] After 24 hours, blood sampling was performed for each mouse from the abdominal aorta under anesthesia with ether, and the collected blood were placed into plastic test tubes being placed with a blood separating agent beforehand, then after 30 min. or 1 hour, the blood sampled was centrifuged at 10,000 rpm to obtain the serum. Total cholesterol value, HDL cholesterol value and total triglyceride value in the serum were respectively measured by using the measuring kits and automatic biochemical analyser.

Assay [3] concerns the target T1, squalene-2,3-oxide cyclase (Rattus norvegicus, UniProt P48450).
T1 sequence (P48450 2-733): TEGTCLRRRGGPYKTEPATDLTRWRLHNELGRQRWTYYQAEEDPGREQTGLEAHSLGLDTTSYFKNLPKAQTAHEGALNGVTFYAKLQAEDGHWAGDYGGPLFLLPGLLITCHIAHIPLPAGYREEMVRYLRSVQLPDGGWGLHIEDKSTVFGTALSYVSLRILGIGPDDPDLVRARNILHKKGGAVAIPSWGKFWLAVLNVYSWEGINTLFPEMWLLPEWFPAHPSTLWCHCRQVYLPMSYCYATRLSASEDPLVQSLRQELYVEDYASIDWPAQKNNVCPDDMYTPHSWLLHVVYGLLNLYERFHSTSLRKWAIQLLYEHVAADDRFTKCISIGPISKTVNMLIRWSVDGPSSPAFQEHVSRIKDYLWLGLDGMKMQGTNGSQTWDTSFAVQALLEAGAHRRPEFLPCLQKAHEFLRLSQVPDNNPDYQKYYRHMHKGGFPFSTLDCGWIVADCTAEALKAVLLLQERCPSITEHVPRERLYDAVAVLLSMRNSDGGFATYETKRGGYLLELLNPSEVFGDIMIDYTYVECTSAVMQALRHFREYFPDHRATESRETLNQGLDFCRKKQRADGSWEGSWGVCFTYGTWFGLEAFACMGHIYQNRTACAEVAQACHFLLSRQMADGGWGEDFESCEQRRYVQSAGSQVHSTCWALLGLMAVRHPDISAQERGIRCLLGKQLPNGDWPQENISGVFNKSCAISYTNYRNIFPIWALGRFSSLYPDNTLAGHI
Kind of assay: Sterol amount synthesized in cell-free cholesterol biosynthesis system (squalene-2,3-epoxide accumulation). Format: biochemical, rat (SD-strain). Conditions: average of 6 results; for Sterol Amount Synthesized: Squalene-2,3-epoxide: control 2125 (Test 1, 1-17), 953 (Test 2, 2-47); for Sterol Amount Synthesized: Cholesterol: control 15448 (Test 1, 1-17), 9453 (Test 2, 2-47); for Sterol Amount Synthesized: Total Amount Synthesized: control 85102 (Test 1, 1-17), 53622 (Test 2, 2-47). Here is the method:
as §1, §2, §3
On the other hand, after determining the position of ^14 C-squalene-2,3-epoxide on the TLC, which was produced due to the action of AMO 1618 (Calbiochem, USA), a squalene-2,3-oxidecyclase inhibitor, the spot containing squalene-2,3-epoxide […] was taken out and the radio-activity thereof was then determined by using a liquid scintillation counter.

[4] abbreviates: read-out: % Change of Serum Lipid to Control Group: HDL Cholesterole.
[5] abbreviates: read-out: % Change of Serum Lipid to Control Group: Total Cholesterole.
Setting [6] is: read-out: % Change of Serum Lipid to Control Group: Total glyceride.

Take `Cc1cc(OC(=O)N2CCCCC2)c(C(C)C)cc1[N+](C)(C)C` [AMO 1618, reference compound]: in assay [1], the IC50 was found to be 140000 nM.

As to `c1ccc(CCCCNc2ccc(-n3ccnc3)cc2)cc1` [Compound 1-20], in assay [1], the IC50 is 700 nM.

`c1ccc(CCCCCCNc2ccc(-n3ccnc3)cc2)cc1` [Compound 1-24]: the IC50 in assay [1] was found to be 2600 nM.

Take `CN(CCCc1ccccc1)c1ccc(-n2ccnc2)cc1` [Compound 1-27]: in assay [1], the IC50 is 1800 nM. The change in vivo at 100 mg/kg is 65% in assay [2] (setting [4]), -14% in assay [2] (setting [5]) and -22% in assay [2] (setting [6]).

For the molecule `c1ccc(OCCCNc2ccc(-n3ccnc3)cc2)cc1` [Compound 1-33], the IC50 in assay [1] came out at 6200 nM.

`c1ccc(OCCCCNc2ccc(-n3ccnc3)cc2)cc1` [Compound 1-35]: in assay [1], the IC50 came to 2200 nM.

For the molecule `c1ccc(CCCOc2ccc(-n3ccnc3)cc2)cc1` [Compound 1-47], the IC50 in assay [1] was determined as 7000 nM. Further, the change in vivo at 100 mg/kg is 46% in assay [2] (setting [4]), -16% in assay [2] (setting [5]) and -23% in assay [2] (setting [6]).

Consider `CC(CCOc1ccc(-n2ccnc2)cc1)c1ccccc1` (centres unmarked) [Compound 1-48], for which the IC50 in assay [1] is 1400 nM.

In the case of `c1ccc(CCCCOc2ccc(-n3ccnc3)cc2)cc1` [Compound 1-49, 1-[4-(4-phenylbutoxy)phenyl]imidazole], the IC50 in assay [1] amounted to 680 nM.

Take `c1ccc(CCCCCCOc2ccc(-n3ccnc3)cc2)cc1` [Compound 1-53]: the IC50 in assay [1] came out at 1700 nM.

For the molecule `c1ccc(OCCCOc2ccc(-n3ccnc3)cc2)cc1` [Compound 1-60], the IC50 in assay [1] turned out to be 4800 nM. Also, the change in vivo at 100 mg/kg in assay [2] (setting [4]) is 52%; in assay [2] (setting [5]), -22%; in assay [2] (setting [6]), -37%.

On to `c1ccc(OCCCCOc2ccc(-n3ccnc3)cc2)cc1` [Compound 1-61], for which the IC50 in assay [1] turned out to be 4000 nM.

Turning to `CCCCCCCCCCNc1ccc(-n2ccnc2)cc1` [Compound 1-115], the IC50 in assay [1] was 10000 nM. The change in vivo at 100 mg/kg in assay [2] (setting [4]) is 22%; in assay [2] (setting [5]), -17%; in assay [2] (setting [6]), -25%.

On to `CCCCCCCCCCOc1ccc(-n2ccnc2)cc1` [Compound 1-119], for which the IC50 in assay [1] was determined as 9000 nM.

On to `c1ccc(CCCOc2ccc(Cn3ccnc3)cc2)cc1` [Compound 2-47, 1-[4-(3-phenylpropyloxy)benzyl]imidazole], for which, in assay [1], the IC50 stood at 1400 nM. The “Sterol Amount Synthesized: Squalene-2,3-epoxide” value amounted to 221 dpm/90min/Assay in assay [3] (1 μM), 1280 dpm/90min/Assay in assay [3] (3 μM), 1836 dpm/90min/Assay in assay [3] (10 μM) and 7126 dpm/90min/Assay in assay [3] (30 μM). The “Sterol Amount Synthesized: Cholesterol” value in assay [3] (1 μM) turned out to be 5289 dpm/90min/Assay; in assay [3] (3 μM), 6333 dpm/90min/Assay; in assay [3] (10 μM), 4210 dpm/90min/Assay; in assay [3] (30 μM), 3787 dpm/90min/Assay. For the same molecule, the “Sterol Amount Synthesized: Total Amount Synthesized” value in assay [3] (1 μM) is reported as 53803 dpm/90min/Assay; in assay [3] (3 μM) it was 56335 dpm/90min/Assay; in assay [3] (10 μM) it was 72823 dpm/90min/Assay; in assay [3] (30 μM) it was 63661 dpm/90min/Assay.

With `c1ccc(CCCCOc2ccc(Cn3ccnc3)cc2)cc1` [Compound 2-49, 1-[4-(4-phenylbutyloxy)benzyl]imidazole], the IC50 in assay [1] came to 1200 nM. The change in vivo at 100 mg/kg in assay [2] (setting [4]) was 20%; in assay [2] (setting [5]), -16%; in assay [2] (setting [6]) it was -10%.

`c1ccc(OCCOc2ccc(Cn3ccnc3)cc2)cc1` [Compound 2-59, 1-[4-(2-phenoxyethyloxy)benzyl]imidazole]: the IC50 in assay [1] was 21000 nM.

As for `c1ccc(OCCCOc2ccc(Cn3ccnc3)cc2)cc1` [Compound 2-60], the IC50 in assay [1] was 10000 nM.

On to `O=S(=O)(CCCOc1ccc(Cn2ccnc2)cc1)c1ccccc1` [Compound 2-68, 1-[4-(3-benzenesulfonylpropyloxy)benzyl]imidazole], for which, in assay [1], the IC50 is under 1000 nM.

On to `Cc1ccc(OCCCOc2ccc(Cn3ccnc3)cc2)cc1` [Compound 2-95, 1-{4-[3-(4-tolyloxy)propyloxy]benzyl} imidazole], for which the IC50 in assay [1] came out at 2400 nM.

For the molecule `CC[C@H](C)C(=O)O[C@H]1C[C@H](O)C=C2C=C[C@H](C)[C@H](CC[C@@H](O)C[C@@H](O)CC(=O)O)[C@H]21` [Pravastatin, reference compound], the change in vivo at 100 mg/kg in assay [2] (setting [4]) was -8%; in assay [2] (setting [5]), -16%; in assay [2] (setting [6]), -28%.
